Test results as given in US8629093B2, “Detergent composition comprising mixture of chelants” (The Procter & Gamble Company, priority 2010, dated 2014).

Experiments:
[1] = Stain removal on tea stains (MiniWasher, image analysis); conditions: wash 32.2° C., 6 gpg hardness, 12 minutes
Method: (§1) The performance of the chelants were measured on wine and tea. Wine and tea stains were applied to cotton and obtained from EMC (US). Stains and ballast load consisting of 0.5 kg of T-shirt was added to a MiniWasher representing a medium US wash conditions. The wash water was set at 32.2° C.±1° C. and 6 gpg (1 mmol/L) hardness and the rinse water was set at 15.5° C.±1° C. The water volume was 15 liters and wash time 12 minutes.
(§2) The stains and the ballast were dried at the end of each cycle under high speed and high heat with cool down cycle. The results were then analyzed by image analysis which is a method that enables to calculate the amount of stain that is removed. Stains are imaged before washing and after washing. The imaging calculates the amount of stain removal index (SRI). SRI of 100 means complete removal and SRI of zero is no removal.
(§3) The Laundry Image Analysis system (Merlin image analysis system) measures stain removal on technical stain swatches. The system utilizes a video camera to acquire color images of swatches. An image of the swatch is taken before and after it is washed. The acquired image is then analyzed by computer software (Global R&D computing). The software compares the unwashed stain to the washed stain, as well as the unwashed fabric to the washed fabric and produces five figures of merit which describe stain removal. The data are then analyzed statistically to determine statistically significant differences between the detergent performances.
(§4) The stain removal index uses the initial fabric as the reference against which to measure color differences between unwashed and washed stains. A higher value indicates a better cleaning and stain removal thus a better detergent. The standard deviation is 1.

[2] = Stain removal on wine stains (MiniWasher, image analysis); conditions: wash 32.2° C., 6 gpg hardness, 12 minutes
Method: as §1, §2, §3, §4

[3] = Cleaning efficacy of compact liquid detergent composition; conditions: composition comprising 0.7% of Na-DTPA
[4] = Product stability on storage, assessed visually; type: physicochemical
Method: Products (I through III) were prepared by combining Composition C and the 3 different chelant combinations. The products (75 g) were stored for 4 weeks at 4° C., 20° C. and 35° C. in a Glass Jar (100 mL contenance). The product stability was then assessed visually. If there is a visual precipitate or a product phase split, the stability is considered Fail. Stability is considered Pass if there is no signs of changes during the storage period.

[5] = chelant 1 ppm, SRI 100 = complete removal, standard deviation 1

SMILES: O=C([O-])CC(NCCNC(CC(=O)O)C(=O)[O-])C(=O)[O-].[Na+].[Na+].[Na+] (stereo not drawn) [Na-EDDS, sodium salt of Ethylenediamine-N,N′-disuccinic acid]
- Stain Removal Index Tea [1, 5]: 28.2
- Stain Removal Index Tea ([1]; chelant 2 ppm): 29.3
- Stain Removal Index Tea ([1]; chelant 3 ppm): 26.1
- Stain Removal Index Wine [2, 5]: 58.3
- Stain Removal Index Wine ([2]; chelant 2 ppm): 59.0
- Stain Removal Index Wine ([2]; chelant 3 ppm): 56.8

SMILES: O=C([O-])CN(CCN(CC(=O)[O-])CC(=O)[O-])CCN(CC(=O)[O-])CC(=O)[O-].[Na+].[Na+].[Na+].[Na+].[Na+] [Na-DTPA, sodium salt of diethylene triamine pentaacetate]
- Cleaning efficacy [3]: does not provide desired cleaning efficacy
- Stability of compact liquid detergent composition ([4]; composition comprising 0.7% of Na-DTPA): stable
- Stability of compact liquid detergent composition ([4]; quantity of Na-DTPA increased to the effective level): does not meet the stability requirements
- Stain Removal Index Tea [1, 5]: 27.6
- Stain Removal Index Tea ([1]; chelant 2 ppm): 29.0
- Stain Removal Index Tea ([1]; chelant 3 ppm): 27.1
- Stain Removal Index Wine [2, 5]: 55.2
- Stain Removal Index Wine ([2]; chelant 2 ppm): 55.8
- Stain Removal Index Wine ([2]; chelant 3 ppm): 56.4
